ChEMBL document CHEMBL4257529, “Antifungal amphiphilic kanamycins: new life for an old drug” (Medchemcomm, 2018)
Converted amounts (≈) assume the structure as drawn.

Assays:
Assay type in all cases: functional
Candida albicans [1] = assay: Antifungal activity against Candida albicans ATCC 10231
Fusarium graminearum [2] = assay: Synergistic antifungal activity against Fusarium graminearum B4-5A strain A assessed as fluconazole MIC after 48 hrs by microdilution assay
Candida albicans [3] = assay: Antifungal activity against sensitive Candida albicans MYA-2876
Fusarium graminearum [4] = assay: Synergistic antifungal activity against Fusarium graminearum infected in wheat plant assessed as fusarium head blight incidence at 360 mg/L in presence of 0.512 L/ha caramba (reference value: 70%)
Fusarium graminearum [5] = assay: Synergistic antifungal activity against Fusarium graminearum B4-5A strain E in presence of fluconazole after 48 hrs by checkerboard method
Candida albicans [6] = assay: Antifungal activity against Candida albicans 94-2181
Fusarium graminearum [7] = assay: Synergistic antifungal activity against Fusarium graminearum infected in wheat plant assessed as fusarium head blight incidence at 180 mg/L in presence of 0.438 L/ha prosaro 421 SC (reference value: 70%)
Cryptococcus neoformans = assay: Antifungal activity against Cryptococcus neoformans H99; details: var grubii H99
Fusarium graminearum [8] = assay: Synergistic antifungal activity against Fusarium graminearum infected in wheat plant assessed as fusarium head blight incidence at 180 mg/L in presence of 0.512 L/ha caramba (reference value: 70%)
Fusarium graminearum [9] = assay: Synergistic antifungal activity against Fusarium graminearum B4-5A strain D in presence of fluconazole after 48 hrs by checkerboard method
Fusarium graminearum [10] = assay: Synergistic antifungal activity against Fusarium graminearum B4-5A strain C in presence of fluconazole after 48 hrs by microdilution assay
Fusarium graminearum [11] = assay: Antifungal activity against Fusarium graminearum infected in wheat plant assessed as fusarium head blight index at 180 mg/L (reference value: 53%)
Clavispora lusitaniae = assay: Antifungal activity against Candida lusitaniae 95-767
Fusarium graminearum [12] = assay: Antifungal activity against Fusarium graminearum B4-5A strain C after 48 hrs by microdilution assay
Fusarium graminearum [13] = assay: Synergistic antifungal activity against Fusarium graminearum infected in wheat plant assessed as contamination of wheat heads and kernels with deoxynivalenol at 360 mg/L in presence of 4 ml/L pyraclostrobin (reference value: 1.2 ppm)
Kluyveromyces marxianus = assay: Antifungal activity against Candida pseudotropicalis YOGI

## CCCCCCCCS(=O)(=O)OC[C@H]1O[C@H](O[C@@H]2[C@@H](O)[C@H](O[C@H]3O[C@H](CN)[C@@H](O)[C@H](O)[C@H]3O)[C@@H](N)C[C@H]2N)[C@H](O)[C@@H](N)[C@@H]1O
Candida albicans [1]
  MIC: 15.6 mg/L (≈ 23.6 µM)
Fusarium graminearum [2]
  MIC: 25 mg/L
Candida albicans [3]
  MIC: 15.6 mg/L (≈ 23.6 µM)
Fusarium graminearum [4]
  Activity: 13%
Fusarium graminearum [5]
  fractional inhibitory concentration index (FICI): 0.7
Candida albicans [6]
  MIC: > 7.8 mg/L
Fusarium graminearum [7]
  Activity: 11%
Cryptococcus neoformans
  MIC: 3.9 to 7.8 mg/L (≈ 5.9 to 11.8 µM)
Fusarium graminearum [8]
  Activity: 15%
Fusarium graminearum [9]
  fractional inhibitory concentration index (FICI): 0.5
Fusarium graminearum [10]
  MIC: 4 mg/L
Fusarium graminearum [11]
  Activity_index: 9%
Clavispora lusitaniae
  MIC: > 7.8 mg/L
Fusarium graminearum [12]
  MIC: 16 mg/L (≈ 24.2 µM)
Fusarium graminearum [13]
  Activity: 1.6 ppm
Kluyveromyces marxianus
  MIC: 15.6 mg/L (≈ 23.6 µM)
